Data: patent US20250145665A1, “MACROCYCLIC PEPTIDES USEFUL AS MODULATORS OF TNF ALPHA” (Bristol-Myers Squibb Company, priority 2023, published 2025)
Positions of bridges follow the written chain, without caps; N, C: chain ends. Non-standard residues stand in square brackets, D forms with d. Residues, ends and D or L forms follow the SMILES beside them. Bip(4'-NHAc) = CC(=O)Nc1ccc(-c2ccc(C[C@H](N)C(=O)O)cc2)cc1; Ala(morpholin-4-yl) = N[C@@H](CN1CCOCC1)C(=O)O; Bip = N[C@@H](Cc1ccc(-c2ccccc2)cc1)C(=O)O; Val(3-OH) = CC(C)(O)[C@H](N)C(=O)O; Hyp = O=C(O)[C@@H]1C[C@@H](O)CN1; Tic = O=C(O)[C@@H]1Cc2ccccc2CN1; Aze = O=C(O)[C@@H]1CCN1; Sar = CNCC(=O)O

Molecular target: TNFα (Homo sapiens, UniProt P01375)
Assay: TNF-Induced HEK-Blue Assay
Format: cell-based
Settings: HEK-Blue-CD40L cells, NF-kB-driven secreted alkaline phosphatase reporter; TNFα 0.5 ng/ml; 18 h; read-out: TNF induced HEK-Blue assay IC50 value
Method: TNFα (final concentration 0.5 ng/ml) or CD40L (final concentration 30 ng/ml) in assay buffer [DMEM, 4.5 g/l glucose (Gibco, Cat. 21063-029), 10% FBS (Sigma, F4135), 1% Penicillin-Streptomycin (Gibco, Cat. 15140-122), 1% Anti-Anti (Gibco, Cat. 15240-112) and 2 mM L-glutamine (Gibco, Cat. 25030-081)] was then added to the assay plate. After a 30 minute pre-incubation at 37° C. and 5% CO2, HEK-Blue™-CD40L cells (INVIVOGEN, Cat. Code hkb-cd40) containing a NF-kB-driven secreted alkaline phosphatase reporter gene were seeded into the assay plate at a density of 20,000 cells per well. This plate was then incubated for 18 h at 37° C. and 5% CO2. Secreted alkaline phosphatase expression was measured using QUANTI-Blue™ (INVIVOGEN, Cat. Code rep-qb1) according to manufacturer's specifications and the assay plate was read on a PerkinElmer Envision at 620 nm.
IC50 values were determined after correcting for background [(sample read-mean of low control)/(mean of high control-mean of low control)] where by the low control is DMSO without stimulation and high control is DMSO with stimulation.

TNFα, sequence (P01375 77-233 limits assumed): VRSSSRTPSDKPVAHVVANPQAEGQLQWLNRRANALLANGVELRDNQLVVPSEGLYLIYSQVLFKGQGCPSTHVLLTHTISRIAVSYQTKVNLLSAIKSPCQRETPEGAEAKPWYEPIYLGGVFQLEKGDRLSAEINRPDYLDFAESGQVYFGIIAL

SMILES | IC50 [nM]
CC(C)C[C@@H]1NC(=O)[C@H](Cc2ccc(O)cc2)NC(=O)[C@H](C(C)C)NC(=O)[C@@H]2CCCN2C(=O)[C@H](C(C)C)NC(=O)[C@@H](CCCNC(=N)N)NC(=O)[C@H](CC(=O)O)NC(=O)[C@H](Cc2ccc(O)cc2)NC(=O)CN(C)C(=O)[C@H](Cc2ccc(-c3ccccc3)cc2)NC(=O)[C@H](Cc2ccc(-c3ccccc3)cc2)NC(=O)[C@H](C(C)(C)O)NC(=O)CSC[C@@H](C(=O)NCC(N)=O)NC1=O [Example 69] ({CH2CO}-[Val(3-OH)][Bip][Bip][Sar]YD[dR]VPVYLCG-NH2; thioether N-13) | < 50
CC(C)C[C@@H]1NC(=O)[C@H](CCCNC(=N)N)NC(=O)[C@H](C(C)C)NC(=O)[C@@H]2C[C@@H](O)CN2C(=O)[C@H](C(C)C)NC(=O)[C@H](CCCNC(=N)N)NC(=O)[C@H](CC(=O)O)NC(=O)[C@@H]2CCCN2C(=O)CN(C)C(=O)[C@H](Cc2ccc(-c3ccccc3)cc2)NC(=O)[C@H](Cc2ccc(-c3ccccc3)cc2)NC(=O)[C@H](CN2CCOCC2)NC(=O)CSC[C@@H](C(=O)NCC(N)=O)NC1=O [Example 70] ({CH2CO}-[Ala(morpholin-4-yl)][Bip][Bip][Sar]PDRV[Hyp]VRLCG-NH2; thioether N-13) | 200 to 2000
CC(C)C[C@@H]1NC(=O)[C@H](CCCNC(=N)N)NC(=O)[C@H](C(C)C)NC(=O)[C@@H]2Cc3ccccc3CN2C(=O)[C@H](C(C)C)NC(=O)[C@H](CCCNC(=N)N)NC(=O)[C@H](CC(=O)O)NC(=O)[C@@H]2CCCN2C(=O)CN(C)C(=O)[C@H](Cc2ccc(-c3ccccc3)cc2)NC(=O)[C@H](Cc2ccc(-c3ccccc3)cc2)NC(=O)[C@H](CN2CCOCC2)NC(=O)CSC[C@@H](C(=O)NCC(N)=O)NC1=O [Example 71] ({CH2CO}-[Ala(morpholin-4-yl)][Bip][Bip][Sar]PDRV[Tic]VRLCG-NH2; thioether N-13) | 50 to 200
CC(C)C[C@@H]1NC(=O)[C@H](CCCNC(=N)N)NC(=O)[C@H](C(C)C)NC(=O)[C@@H]2CCN2C(=O)[C@H](C(C)C)NC(=O)[C@H](CCCNC(=N)N)NC(=O)[C@H](CC(=O)O)NC(=O)[C@@H]2CCCN2C(=O)CN(C)C(=O)[C@H](Cc2ccc(-c3ccccc3)cc2)NC(=O)[C@H](Cc2ccc(-c3ccccc3)cc2)NC(=O)[C@H](CN2CCOCC2)NC(=O)CSC[C@@H](C(=O)NCC(N)=O)NC1=O [Example 72] ({CH2CO}-[Ala(morpholin-4-yl)][Bip][Bip][Sar]PDRV[Aze]VRLCG-NH2; thioether N-13) | 50 to 200
CC(C)C[C@@H]1NC(=O)[C@H](Cc2ccc(O)cc2)NC(=O)[C@H](C(C)C)NC(=O)[C@@H]2C[C@@H](O)CN2C(=O)[C@H](C(C)C)NC(=O)[C@H](CCCNC(=N)N)NC(=O)[C@H](CC(=O)O)NC(=O)[C@H](Cc2ccc(O)cc2)NC(=O)CN(C)C(=O)[C@H](Cc2ccc(-c3ccccc3)cc2)NC(=O)[C@H](Cc2ccc(-c3ccccc3)cc2)NC(=O)[C@H](CN2CCOCC2)NC(=O)CSC[C@@H](C(=O)NCC(N)=O)NC1=O [Example 73] ({CH2CO}-[Ala(morpholin-4-yl)][Bip][Bip][Sar]YDRV[Hyp]VYLCG-NH2; thioether N-13) | 200 to 2000
CC(C)C[C@@H]1NC(=O)[C@H](Cc2ccc(O)cc2)NC(=O)[C@H](C(C)C)NC(=O)[C@@H]2Cc3ccccc3CN2C(=O)[C@H](C(C)C)NC(=O)[C@H](CCCNC(=N)N)NC(=O)[C@H](CC(=O)O)NC(=O)[C@H](Cc2ccc(O)cc2)NC(=O)CN(C)C(=O)[C@H](Cc2ccc(-c3ccccc3)cc2)NC(=O)[C@H](Cc2ccc(-c3ccccc3)cc2)NC(=O)[C@H](CN2CCOCC2)NC(=O)CSC[C@@H](C(=O)NCC(N)=O)NC1=O [Example 74] ({CH2CO}-[Ala(morpholin-4-yl)][Bip][Bip][Sar]YDRV[Tic]VYLCG-NH2; thioether N-13) | 200 to 2000
CC(C)C[C@@H]1NC(=O)[C@H](Cc2ccc(O)cc2)NC(=O)[C@H](C(C)C)NC(=O)[C@@H]2CCN2C(=O)[C@H](C(C)C)NC(=O)[C@H](CCCNC(=N)N)NC(=O)[C@H](CC(=O)O)NC(=O)[C@H](Cc2ccc(O)cc2)NC(=O)CN(C)C(=O)[C@H](Cc2ccc(-c3ccccc3)cc2)NC(=O)[C@H](Cc2ccc(-c3ccccc3)cc2)NC(=O)[C@H](CN2CCOCC2)NC(=O)CSC[C@@H](C(=O)NCC(N)=O)NC1=O [Example 75] ({CH2CO}-[Ala(morpholin-4-yl)][Bip][Bip][Sar]YDRV[Aze]VYLCG-NH2; thioether N-13) | 200 to 2000
CC(C)C[C@@H]1NC(=O)[C@H](CCCNC(=N)N)NC(=O)[C@H](C(C)C)NC(=O)[C@@H]2CCCN2C(=O)[C@H](C(C)C)NC(=O)[C@@H](CCCNC(=N)N)NC(=O)[C@H](CC(=O)O)NC(=O)[C@H](Cc2ccc(O)cc2)NC(=O)CN(C)C(=O)[C@H](Cc2ccc(-c3ccccc3)cc2)NC(=O)[C@H](Cc2ccc(-c3ccccc3)cc2)NC(=O)[C@H](CN2CCOCC2)NC(=O)CSC[C@@H](C(=O)NCC(N)=O)NC1=O [Example 76] ({CH2CO}-[Ala(morpholin-4-yl)][Bip][Bip][Sar]YD[dR]VPVRLCG-NH2; thioether N-13) | < 50
CC(C)C[C@@H]1NC(=O)[C@H](Cc2ccc(O)cc2)NC(=O)[C@H](C(C)C)NC(=O)[C@@H]2CCCN2C(=O)[C@H](C(C)C)NC(=O)[C@@H](CCCNC(=N)N)NC(=O)[C@H](CC(=O)O)NC(=O)[C@@H]2CCCN2C(=O)CN(C)C(=O)[C@H](Cc2ccc(-c3ccccc3)cc2)NC(=O)[C@H](Cc2ccc(-c3ccccc3)cc2)NC(=O)[C@H](CN2CCOCC2)NC(=O)CSC[C@@H](C(=O)NCC(N)=O)NC1=O [Example 77] ({CH2CO}-[Ala(morpholin-4-yl)][Bip][Bip][Sar]PD[dR]VPVYLCG-NH2; thioether N-13) | 200 to 2000
CC(C)C[C@@H]1NC(=O)[C@H](Cc2ccc(O)cc2)NC(=O)[C@H](C(C)C)NC(=O)[C@@H]2C[C@@H](O)CN2C(=O)[C@H](C(C)C)NC(=O)[C@@H](CCCNC(=N)N)NC(=O)[C@H](CC(=O)O)NC(=O)[C@H](Cc2ccc(O)cc2)NC(=O)CN(C)C(=O)[C@H](Cc2ccc(-c3ccccc3)cc2)NC(=O)[C@H](Cc2ccc(-c3ccccc3)cc2)NC(=O)[C@H](CN2CCOCC2)NC(=O)CSC[C@@H](C(=O)NCC(N)=O)NC1=O [Example 78] ({CH2CO}-[Ala(morpholin-4-yl)][Bip][Bip][Sar]YD[dR]V[Hyp]VYLCG-NH2; thioether N-13) | 50 to 200
CC(C)C[C@@H]1NC(=O)[C@H](Cc2ccc(O)cc2)NC(=O)[C@H](C(C)C)NC(=O)[C@@H]2CCN2C(=O)[C@H](C(C)C)NC(=O)[C@@H](CCCNC(=N)N)NC(=O)[C@H](CC(=O)O)NC(=O)[C@H](Cc2ccc(O)cc2)NC(=O)CN(C)C(=O)[C@H](Cc2ccc(-c3ccccc3)cc2)NC(=O)[C@H](Cc2ccc(-c3ccccc3)cc2)NC(=O)[C@H](CN2CCOCC2)NC(=O)CSC[C@@H](C(=O)NCC(N)=O)NC1=O [Example 79] ({CH2CO}-[Ala(morpholin-4-yl)][Bip][Bip][Sar]YD[dR]V[Aze]VYLCG-NH2; thioether N-13) | < 50
CC(C)C[C@@H]1NC(=O)[C@H](Cc2ccc(O)cc2)NC(=O)[C@H](C(C)C)NC(=O)[C@@H]2C[C@@H](O)CN2C(=O)[C@H](C(C)C)NC(=O)[C@@H](CCCNC(=N)N)NC(=O)[C@H](CC(=O)O)NC(=O)[C@@H]2CCCN2C(=O)CN(C)C(=O)[C@H](Cc2ccc(-c3ccccc3)cc2)NC(=O)[C@H](Cc2ccc(-c3ccccc3)cc2)NC(=O)[C@H](CN2CCOCC2)NC(=O)CSC[C@@H](C(=O)NCC(N)=O)NC1=O [Example 80] ({CH2CO}-[Ala(morpholin-4-yl)][Bip][Bip][Sar]PD[dR]V[Hyp]VYLCG-NH2; thioether N-13) | 200 to 2000
CC(C)C[C@@H]1NC(=O)[C@H](Cc2ccc(O)cc2)NC(=O)[C@H](C(C)C)NC(=O)[C@@H]2Cc3ccccc3CN2C(=O)[C@H](C(C)C)NC(=O)[C@@H](CCCNC(=N)N)NC(=O)[C@H](CC(=O)O)NC(=O)[C@@H]2CCCN2C(=O)CN(C)C(=O)[C@H](Cc2ccc(-c3ccccc3)cc2)NC(=O)[C@H](Cc2ccc(-c3ccccc3)cc2)NC(=O)[C@H](CN2CCOCC2)NC(=O)CSC[C@@H](C(=O)NCC(N)=O)NC1=O [Example 81] ({CH2CO}-[Ala(morpholin-4-yl)][Bip][Bip][Sar]PD[dR]V[Tic]VYLCG-NH2; thioether N-13) | 50 to 200
CC(C)C[C@@H]1NC(=O)[C@H](Cc2ccc(O)cc2)NC(=O)[C@H](C(C)C)NC(=O)[C@@H]2CCN2C(=O)[C@H](C(C)C)NC(=O)[C@@H](CCCNC(=N)N)NC(=O)[C@H](CC(=O)O)NC(=O)[C@@H]2CCCN2C(=O)CN(C)C(=O)[C@H](Cc2ccc(-c3ccccc3)cc2)NC(=O)[C@H](Cc2ccc(-c3ccccc3)cc2)NC(=O)[C@H](CN2CCOCC2)NC(=O)CSC[C@@H](C(=O)NCC(N)=O)NC1=O [Example 82] ({CH2CO}-[Ala(morpholin-4-yl)][Bip][Bip][Sar]PD[dR]V[Aze]VYLCG-NH2; thioether N-13) | 200 to 2000
CC(C)C[C@@H]1NC(=O)[C@H](Cc2ccc(O)cc2)NC(=O)[C@H](C(C)C)NC(=O)[C@@H]2CCCN2C(=O)[C@H](CC(N)=O)NC(=O)[C@H](CCCNC(=N)N)NC(=O)[C@H](CC(=O)O)NC(=O)[C@H](Cc2ccc(O)cc2)NC(=O)CN(C)C(=O)[C@H](Cc2ccc(-c3ccccc3)cc2)NC(=O)[C@H](Cc2ccc(-c3ccccc3)cc2)NC(=O)[C@H](CN2CCOCC2)NC(=O)CSC[C@@H](C(=O)NCC(N)=O)NC1=O [Example 83] ({CH2CO}-[Ala(morpholin-4-yl)][Bip][Bip][Sar]YDRNPVYLCG-NH2; thioether N-13) | 50 to 200
CC(=O)Nc1ccc(-c2ccc(C[C@@H]3NC(=O)[C@H](CN4CCOCC4)NC(=O)CSC[C@@H](C(=O)NCC(N)=O)NC(=O)[C@H](C(C)C)NC(=O)[C@H](CCCNC(=N)N)NC(=O)[C@H](C(C)C)NC(=O)[C@@H]4CCCN4C(=O)[C@H](C(C)C)NC(=O)[C@@H](CCCNC(=N)N)NC(=O)[C@H](CC(=O)O)NC(=O)[C@@H]4CCCN4C(=O)CN(C)C(=O)[C@H](Cc4ccc(-c5ccccc5)cc4)NC3=O)cc2)cc1 [Example 85] ({CH2CO}-[Ala(morpholin-4-yl)][Bip(4'-NHAc)][Bip][Sar]PD[dR]VPVRVCG-NH2; thioether N-13) | 200 to 2000
